Like-named read-outs stand apart in the source and are kept apart here. Each block holds one compound with its values, some of them ahead of it.
Tests used:
CLK2 = target: T1, CLK2 (Homo sapiens, UniProt P49760); test: CLK2 kinase activity assay (Z-lyte, Ser/Thr 6 peptide); format: biochemical; settings: recombinant CLK2 kinase, ATP 60 μM; read-out: EC50
T1 construct: purchased Thermo Fisher (Life Technologies), Z'-LYTE Kinase Assay Kits
Experimental: All reactions were performed in duplicate.

BT-549 = test: CellTiter-Glo Viability Assay, breast cancer; format: cell-based; settings: Homo sapiens, 96 h; BT-549, breast cancer, four days; read-out: EC50
CAMA1 = test: CellTiter-Glo Viability Assay, breast cancer; format: cell-based; settings: Homo sapiens, CAMA-1, 96 h; CAMA1, breast cancer, four days; read-out: EC50
DU4475 = test: CellTiter-Glo Viability Assay, breast cancer; format: cell-based; settings: Homo sapiens, DU-4475, 96 h; DU4475, breast cancer, four days; read-out: EC50
HCC1599 = test: CellTiter-Glo Viability Assay, breast cancer; format: cell-based; settings: Homo sapiens, 96 h; HCC1599, breast cancer, four days; read-out: EC50
MCF7 = test: CellTiter-Glo Viability Assay, breast cancer; format: cell-based; settings: Homo sapiens, 96 h; MCF7, breast cancer, four days; read-out: EC50
MDA-MB-231-Luc = test: CellTiter-Glo Viability Assay, breast cancer; format: cell-based; settings: Homo sapiens, 96 h; MDA-MB-231-Luc, breast cancer, four days; read-out: EC50
T47D = test: CellTiter-Glo Viability Assay, breast cancer; format: cell-based; settings: Homo sapiens, 96 h, breast cancer, four days, read-out: EC50
ZR-75-1 = test: CellTiter-Glo Viability Assay, breast cancer; format: cell-based; settings: Homo sapiens, 96 h; ZR-75-1, breast cancer, four days; read-out: EC50
all 50 cell lines = test: CellTiter-Glo Viability Assay, average across all cell lines; format: cell-based; settings: Homo sapiens; across all 50 cell lines; read-out: average EC50 for inhibition of cancer cell proliferation
Summary of the method: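 Luminescent ATP read-out (CellTiter-Glo) after a 4-day compound exposure at 37° C served as the viability measure. Cells were seeded at 300-3,000/well, compound wells run in duplicate against DMSO controls, and EC50 values came from fitted dose-response curves.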

[1] = system: colorectal cancer (6 cell lines); test: CellTiter-Glo Viability Assay, colorectal cancer; format: cell-based; settings: Homo sapiens, inhibition of cancer cell proliferation
[2] = system: haematopoietic & lymphoid tumors (13 cell lines); test: CellTiter-Glo Viability Assay, haematopoietic & lymphoid tumors; format: cell-based; settings: Homo sapiens, inhibition of cancer cell proliferation
[3] = system: liver cancer (3 cell lines); test: CellTiter-Glo Viability Assay, liver cancer; format: cell-based; settings: Homo sapiens, inhibition of cancer cell proliferation
[4] = system: lung cancer (4 cell lines); test: CellTiter-Glo Viability Assay, lung cancer; format: cell-based; settings: Homo sapiens, inhibition of cancer cell proliferation
[5] = system: ovarian cancer (4 cell lines); test: CellTiter-Glo Viability Assay, ovarian cancer; format: cell-based; settings: Homo sapiens, inhibition of cancer cell proliferation
[6] = system: pancreatic cancer (8 cell lines); test: CellTiter-Glo Viability Assay, pancreatic cancer; format: cell-based; settings: Homo sapiens, inhibition of cancer cell proliferation
[7] = system: prostate cancer (5 cell lines); test: CellTiter-Glo Viability Assay, prostate cancer; format: cell-based; settings: Homo sapiens
CLK3 = CLK3 (Homo sapiens, UniProt P49761); test: CLK3 kinase activity assay (Z-lyte, Ser/Thr 18 peptide)
Chain of CLK3 (P49761 whole entry): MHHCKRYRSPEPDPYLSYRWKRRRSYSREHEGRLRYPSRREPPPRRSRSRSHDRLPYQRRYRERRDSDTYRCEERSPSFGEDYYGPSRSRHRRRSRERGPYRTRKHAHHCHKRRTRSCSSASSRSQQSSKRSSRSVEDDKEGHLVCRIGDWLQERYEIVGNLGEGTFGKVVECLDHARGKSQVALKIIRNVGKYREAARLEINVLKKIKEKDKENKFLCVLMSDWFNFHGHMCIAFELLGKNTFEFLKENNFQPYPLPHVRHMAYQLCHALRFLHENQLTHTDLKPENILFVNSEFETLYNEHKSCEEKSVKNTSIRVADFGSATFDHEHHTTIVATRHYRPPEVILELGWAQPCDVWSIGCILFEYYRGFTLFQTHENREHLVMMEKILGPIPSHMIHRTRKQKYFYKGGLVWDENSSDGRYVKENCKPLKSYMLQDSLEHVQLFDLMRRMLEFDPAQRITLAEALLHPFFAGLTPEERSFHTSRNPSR

[8] = HCT-116, HCT116 cell line, read-out: Colorectal cancer, EC50 (μM) HCT116
[9] = HT-29, HT29 cell line, read-out: Colorectal cancer, EC50 (μM) HT29
[10] = SW-620, SW620 cell line, read-out: Colorectal cancer, EC50 (μM) SW620
[11] = DLD-1 cell line, read-out: Colorectal cancer, EC50 (μM) DLD-1
[12] = SW48 cell line, read-out: Colorectal cancer, EC50 (μM) SW48
[13] = SW480 cell line, read-out: Colorectal cancer, EC50 (μM) SW480
[14] = DND41, DND-41 cell line, read-out: Haematopoietic & Lymphoid tumors, EC50 (μM) DND-41
[15] = MV4-11, MV-4-11 cell line, read-out: Haematopoietic & Lymphoid tumors, EC50 (μM) MV-4-11
[16] = Rec1, REC-1 cell line, read-out: Haematopoietic & Lymphoid tumors, EC50 (μM) REC-1
[17] = SU-DHL-4, SUDHL4 cell line, read-out: Haematopoietic & Lymphoid tumors, EC50 (μM) SUDHL4
[18] = HL-60 cell line, read-out: Haematopoietic & Lymphoid tumors, EC50 (μM) HL-60
[19] = JM1 cell line, read-out: Haematopoietic & Lymphoid tumors, EC50 (μM) JM1
[20] = JURKAT, Clone E6-1 cell line, read-out: Haematopoietic & Lymphoid tumors, EC50 (μM) JURKAT, Clone E6-1
[21] = JeKo-1 cell line, read-out: Haematopoietic & Lymphoid tumors, EC50 (μM) JeKo-1
[22] = KASUMI-1 cell line, read-out: Haematopoietic & Lymphoid tumors, EC50 (μM) KASUMI-1
[23] = Loucy cell line, read-out: Haematopoietic & Lymphoid tumors, EC50 (μM) Loucy
[24] = MOLT-4 cell line, read-out: Haematopoietic & Lymphoid tumors, EC50 (μM) MOLT-4
[25] = TF-1 cell line, read-out: Haematopoietic & Lymphoid tumors, EC50 (μM) TF-1
[26] = TOLEDO cell line, read-out: Haematopoietic & Lymphoid tumors, EC50 (μM) TOLEDO
[27] = SNU-398, SNU398 cell line, read-out: Liver cancer, EC50 SNU398
[28] = HEPG2 cell line, read-out: Liver cancer, EC50 HEPG2
[29] = PLC/PRF/5 cell line, read-out: Liver cancer, EC50 PLC/PRF/5
[30] = A-427, A427 cell line, read-out: Lung cancer, EC50 (μM) A427
[31] = HCC78, HCC-78 cell line, read-out: Lung cancer, EC50 (μM) HCC-78
[32] = NCI-H460 cell line, read-out: Lung cancer, EC50 (μM) NCI-H460
[33] = NCI-H522 cell line, read-out: Lung cancer, EC50 (μM) NCI-H522
[34] = PA-1, PA1 cell line, read-out: Ovarian cancer, EC50 (μM) PA1
[35] = TOV112D, TOV-112D cell line, read-out: Ovarian cancer, EC50 (μM) TOV-112D
[36] = OV-90 cell line, read-out: Ovarian cancer, EC50 (μM) OV-90
[37] = OVCAR-3 cell line, read-out: Ovarian cancer, EC50 (μM) OVCAR-3
[38] = BXPC-3, BxPC3 cell line, read-out: Pancreatic cancer, EC50 BxPC3
[39] = CAPAN-1, Capan1 cell line, read-out: Pancreatic cancer, EC50 Capan1
[40] = Capan-2, Capan2 cell line, read-out: Pancreatic cancer, EC50 Capan2
[41] = MIA PaCa-2 cell line, read-out: Pancreatic cancer, EC50 MIA PaCa-2
[42] = PANC 05.04 cell line, read-out: Pancreatic cancer, EC50 PANC 05.04
[43] = PANC-1 cell line, read-out: Pancreatic cancer, EC50 PANC-1
[44] = UPAFII cell line, read-out: Pancreatic cancer, EC50 UPAFII
[45] = DU-145, read-out: Prostate cancer EC50 Du-145
[46] = PC-3, PC3 cell line, inhibition of cancer cell proliferation, read-out: Prostate cancer EC50 PC3
[47] = 22Rv1 cell line, inhibition of cancer cell proliferation, read-out: Prostate cancer EC50 22Rv1
[48] = LNCap clone FGC cell line, inhibition of cancer cell proliferation, read-out: Prostate cancer EC50 LNCap clone FGC
[49] = VCaP (Sigma) cell line, inhibition of cancer cell proliferation, read-out: Prostate cancer EC50 VCaP (Sigma)

T1 sequence (P49760 whole entry): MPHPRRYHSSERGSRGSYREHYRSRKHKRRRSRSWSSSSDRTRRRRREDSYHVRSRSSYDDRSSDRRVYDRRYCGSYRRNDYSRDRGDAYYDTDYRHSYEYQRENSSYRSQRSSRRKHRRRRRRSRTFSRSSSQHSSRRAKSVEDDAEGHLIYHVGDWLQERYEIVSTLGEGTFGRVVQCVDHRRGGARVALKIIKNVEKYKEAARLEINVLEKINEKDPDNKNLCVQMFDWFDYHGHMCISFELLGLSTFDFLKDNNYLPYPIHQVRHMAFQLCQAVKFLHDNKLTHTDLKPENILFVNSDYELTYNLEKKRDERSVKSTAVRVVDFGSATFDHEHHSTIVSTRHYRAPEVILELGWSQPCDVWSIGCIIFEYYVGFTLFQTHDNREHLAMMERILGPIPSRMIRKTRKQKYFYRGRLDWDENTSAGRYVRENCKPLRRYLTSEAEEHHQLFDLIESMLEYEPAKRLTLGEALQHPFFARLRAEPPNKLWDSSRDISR

EC50 (CLK2): 3.1 nM | EC50 (BT-549): 24 nM | EC50 (CAMA1): 88 nM | EC50 (DU4475): 46 nM | EC50 (HCC1599): 8 nM | EC50 (MCF7): 336 nM | EC50 (MDA-MB-231-Luc): 118 nM | EC50 (T47D): 402 nM | EC50 (ZR-75-1): 113 nM | EC50 [1, 8]: 0.05 µM | EC50 [1, 9]: 0.211 µM | EC50 [1, 10]: 0.044 µM | EC50 [1, 11]: 0.095 µM | EC50 [1, 12]: 0.082 µM | EC50 [1, 13]: 0.078 µM | EC50 [2, 14]: 0.014 µM | EC50 [2, 15]: 0.007 µM | EC50 [2, 16]: 0.024 µM | EC50 [2, 17]: 0.009 µM | EC50 [2, 18]: 0.034 µM | EC50 [2, 19]: 0.01 µM | EC50 [2, 20]: 0.031 µM | EC50 [2, 21]: 0.008 µM | EC50 [2, 22]: 0.01 µM | EC50 [2, 23]: 0.013 µM | EC50 [2, 24]: 0.045 µM | EC50 [2, 25]: 0.008 µM | EC50 [2, 26]: 0.019 µM | EC50 [3, 27]: 38 nM | EC50 [3, 28]: 375 nM | EC50 [3, 29]: 444 nM | EC50 [4, 30]: 0.064 µM | EC50 [4, 31]: 0.1 µM | EC50 [4, 32]: 0.476 µM | EC50 [4, 33]: 0.06 µM | EC50 [5, 34]: 0.057 µM | EC50 [5, 35]: 0.102 µM | EC50 [5, 36]: 0.255 µM | EC50 [5, 37]: 0.025 µM | EC50 [6, 38]: 22 nM | EC50 [6, 39]: 103 nM | EC50 [6, 40]: 74 nM | EC50 [6, 41]: 40 nM | EC50 [6, 42]: 60 nM | EC50 [6, 43]: 413 nM | EC50 [6, 44]: 136 nM | EC50 [7, 45]: 91 nM | EC50 [7, 46]: 31 nM | EC50 [7, 47]: 21 nM | EC50 [7, 48]: 50 nM | EC50 [7, 49]: 9 nM | EC50 (CLK3): 22.5 nM
SMILES: O=C(Nc1c[nH]nc1-c1nc2c(-c3cccc(F)c3)cncc2[nH]1)c1cccnc1 [Compound 91]
EC50 (all 50 cell lines): 99 nM

EC50 (CLK2): 3.3 nM | EC50 (BT-549): 328 nM | EC50 (CAMA1): 1530 nM | EC50 (DU4475): 42 nM | EC50 (HCC1599): 248 nM | EC50 (MCF7): > 10000 nM | EC50 (MDA-MB-231-Luc): 6630 nM | EC50 (T47D): 3220 nM | EC50 (ZR-75-1): 6900 nM | EC50 [1, 8]: 3.81 µM | EC50 [1, 9]: > 10 µM | EC50 [1, 10]: 1.09 µM | EC50 [1, 11]: 9.99 µM | EC50 [1, 12]: 5.05 µM | EC50 [1, 13]: 1.38 µM | EC50 [2, 14]: 0.959 µM | EC50 [2, 15]: 0.121 µM | EC50 [2, 16]: 5.51 µM | EC50 [2, 17]: 0.365 µM | EC50 [2, 18]: 3.21 µM | EC50 [2, 19]: 0.394 µM | EC50 [2, 20]: > 10 µM | EC50 [2, 21]: 0.39 µM | EC50 [2, 22]: 0.767 µM | EC50 [2, 23]: 0.485 µM | EC50 [2, 24]: > 10 µM | EC50 [2, 25]: > 10 µM | EC50 [2, 26]: 0.402 µM | EC50 [3, 27]: 160 nM | EC50 [3, 28]: > 10000 nM | EC50 [3, 29]: > 10000 nM | EC50 [4, 30]: 1.31 µM | EC50 [4, 31]: > 10 µM | EC50 [4, 32]: > 10 µM | EC50 [4, 33]: 0.224 µM | EC50 [5, 34]: 0.767 µM | EC50 [5, 35]: 1.45 µM | EC50 [5, 36]: > 10 µM | EC50 [5, 37]: 0.436 µM | EC50 [6, 38]: > 10000 nM | EC50 [6, 39]: 3620 nM | EC50 [6, 40]: > 10000 nM | EC50 [6, 41]: 697 nM | EC50 [6, 42]: > 10000 nM | EC50 [6, 43]: > 10000 nM | EC50 [6, 44]: > 10000 nM | EC50 [7, 45]: > 10000 nM | EC50 [7, 46]: 3370 nM | EC50 [7, 47]: 7900 nM | EC50 [7, 48]: > 10000 nM | EC50 [7, 49]: > 10000 nM | EC50 (CLK3): 16.3 nM
SMILES: O=C1COc2cccc(c2)-c2cncc3[nH]c(nc23)-c2n[nH]c3ccc(cc23)-c2cncc(c2)N1 [Compound 56]
EC50 (all 50 cell lines): 5060 nM

From patent US20220062240A1, “METHODS OF TREATING CANCER USING A CLK INHIBITOR” (BioSplice Therapeutics, Inc., priority 2018, published 2022)
